Assay results from ChEMBL document CHEMBL1201862, “PubChem BioAssay data set” (2004).
Active and inactive are the calls of the source.

Experiments:
[1] = cytotoxicity toward DRD oncogenic fibroblasts, dose response, cell-based, non-viral oncogenic, luminescence (AID 1934); type: functional; conditions: Homo sapiens
BJ [2] = experiment: cells; type: functional, cell-based; conditions: Homo sapiens
[3] = inhibitors of SNCA 5'UTR-driven reporter translation, confirmation, H4 neuroglioma cells, luminescence (AID 1988); type: functional, cell-based
BJ [4] = experiment: cytotoxicity toward BJ-TERT-LT-ST fibroblasts, dose response, cell-based, RAS-independent, luminescence (AID 1935); type: functional; conditions: Homo sapiens;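 also: BJ fibroblasts immortalized with TERT plus LT and ST oncogenes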
[5] = Luminescence Cell-Based Dose Response HTS to Identify Inhibitors of 5'UTR Stem-Loop Driven Prion Protein mRNA Translation in H4 Neuroglioblastoma Cells. [Related pubchem assays: 1827 (Project Summary), 1813 (Primary HTS)]; type: functional
[6] = target: T1, Heat shock protein HSP 90-alpha (Homo sapiens, UniProt P07900); type: functional, organism-based
[7] = inhibitors of firefly luciferase expression or activity, dose response, H4 neuroglioma cells, luminescence (AID 1990); type: functional, cell-based
[8] = target: G-protein coupled receptor 55 (Homo sapiens, UniProt Q9Y2T6); experiment: GPR55 antagonists blocking LPI-driven arrestin recruitment, primary screen, imaging, U2OS, beta-arrestin-GFP, LPI agonist (AID 2013); type: functional;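 also: antagonist potency measured as reduced agonist-driven arrestin aggregation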
G-protein coupled receptor 55, sequence (Q9Y2T6 whole entry): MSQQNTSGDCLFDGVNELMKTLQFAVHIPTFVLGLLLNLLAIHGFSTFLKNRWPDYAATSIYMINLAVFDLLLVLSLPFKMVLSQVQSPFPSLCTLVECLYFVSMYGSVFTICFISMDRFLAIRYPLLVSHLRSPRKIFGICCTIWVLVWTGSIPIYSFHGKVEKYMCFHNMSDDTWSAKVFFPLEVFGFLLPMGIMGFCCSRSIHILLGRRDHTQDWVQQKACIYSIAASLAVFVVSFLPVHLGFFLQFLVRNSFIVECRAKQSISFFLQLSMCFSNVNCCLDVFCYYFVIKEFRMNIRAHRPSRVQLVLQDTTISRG

BJ [9] = experiment: cytotoxicity toward BJ-TERT fibroblasts, dose response, cell-based, RAS-independent, luminescence (AID 1933); type: functional; conditions: Homo sapiens
BJ [10] = experiment: cytotoxicity toward Ras-transformed BJeLR fibroblasts, dose response, cell-based, alamar blue fluorescence, cherrypicked samples (AID 2631); type: functional; conditions: Homo sapiens;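 also: confirmatory dose-response assay in RAS-dependent BJ fibroblasts engineered with TERT, LT and ST, with cytotoxicity read by fluorescence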
HeLa = experiment: Cytotoxicity counterscreen assay for transcriptional activators of heat shock protein 70 (Hsp70). [Related pubchem assays: 1203, 1252 ]; type: functional; conditions: Homo sapiens
[11] = reduction of Shn3 3'UTR firefly luciferase signal, dose response, Schnurri-3 inhibitor project, cell-based, Clone20 osteoblasts, cherry-pick, set 2 (AID 720490); type: functional;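 also: actives lower the luminescence signal as inhibitors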
[12] = MC4R antagonists, dose response, counter-screen for LGR2 antagonist project, cell-based, plate reader, cherry pick (AID 743444); type: functional;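 also: transfected HEK 293 cells stimulated with alpha-MSH peptide; potency of inhibitors of the alpha-MSH evoked signal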
[13] = inhibitors of clade B AD8 Env fusion, dose response, cell-based, cherry-pick (AID 652062); type: functional;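 also: luciferase signal from cell-cell fusion driven by HIV-1 clade B AD8 Env; potency is for inhibitors of fusion seen as a drop in luminescence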
[14] = luciferase reporter signal reduction – luminescence, H4-C neuroglioblastoma cells, dose response (AID 2458); type: functional, cell-based;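 also: H4 neuroglioblastoma cells stably carrying a luciferase reporter gene fusion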
[15] = inhibitors of control Renilla luciferase reporter, dose response, counter-screen for Shn3 3'UTR targeting project, Clone20-Shn3RL cells, dual-Glo, cherry-pick, set 2 (AID 720724); type: functional, cell-based; conditions: Dual-Go Shn3RL
[16] = off-target signal loss in HeLa-CEM21 co-culture – HeLa F-luc CTL cells, cherry-picked, counter-screen for HIV-1 Env fusion inhibitor project, dose response (AID 652040); type: functional, cell-based;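 also: potency for signal decrease marking cytotoxic or nonspecific inhibition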
cells = type: functional, cell-based
[17] = cytotoxicity in HEK-293T NF-kB-Luc cells, dose response, cytotoxicity control for B/T-cell NF-kB inhibitor project, cell-based, uHTS hits (AID 489019); type: functional;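 also: IC50 reflects cytotoxicity as loss of cell viability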
Jurkat = experiment: antigen receptor-induced NF-kB inhibitors, dose response, Jurkat, luciferase reporter, luminescence, B- and T-cell (AID 489004); type: functional, cell-based; conditions: Homo sapiens;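 also: NF-kB luciferase reporter Jurkat cells stimulated with PMA plus ionomycin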
[18] = Shn3 3'UTR reporter inhibitors, dose response, cell-based, Clone20 osteoblasts, firefly luciferase, cherry-picked (AID 624132); type: functional;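 also: firefly luciferase luminescence from reporter carrying the Shn3 3'UTR in osteoblasts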
[19] = inhibitors of SNCA 5'UTR-driven translation, confirmation, luminescence, H4 neuroglioblastoma cells, dose confirmation (AID 2454); type: functional, cell-based;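 also: H4 neuroglioblastoma cells carrying an alpha-synuclein 5'UTR luciferase reporter; potency for inhibition of the luciferase signal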
[20] = LGR2 antagonists, dose response, cell-based, HEK293, CRE-luciferase reporter, cherry pick, set 2 (AID 743343); type: functional;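 also: transfected cells were stimulated with diluted bursicon conditioned medium after compound addition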
[21] = target: T1, Heat shock protein HSP 90-alpha; experiment: Luminescence-based dose response biochemical high throughput screening assay for inhibitors of the Heat Shock Protein 90 (HSP90). [Related pubchem assays: 1831 (Summary AID.), 1846 (Confirmation screen.), 1789 (Primary screen.)]
[22] = ZM109 Env clade C HIV-1 fusion inhibitors, dose response, HeLa effector, CEM target cells, luciferase, cherry-pick (AID 652058); type: functional, cell-based
[23] = target: T2, Heat shock factor protein 1 (Mus musculus, UniProt P38532); experiment: inhibition of MG132-induced HSE-luciferase signal, confirmation, cell-based, NIH3T3, luminescence, dose retest (AID 2382); type: functional;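 also: NIH3T3 fibroblasts with HSF1-driven luciferase reporter stressed by proteasome inhibitor MG132; luminescence from HSF1-driven luciferase expression after 8 hours of MG132 stress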
T2 sequence (P38532 whole entry): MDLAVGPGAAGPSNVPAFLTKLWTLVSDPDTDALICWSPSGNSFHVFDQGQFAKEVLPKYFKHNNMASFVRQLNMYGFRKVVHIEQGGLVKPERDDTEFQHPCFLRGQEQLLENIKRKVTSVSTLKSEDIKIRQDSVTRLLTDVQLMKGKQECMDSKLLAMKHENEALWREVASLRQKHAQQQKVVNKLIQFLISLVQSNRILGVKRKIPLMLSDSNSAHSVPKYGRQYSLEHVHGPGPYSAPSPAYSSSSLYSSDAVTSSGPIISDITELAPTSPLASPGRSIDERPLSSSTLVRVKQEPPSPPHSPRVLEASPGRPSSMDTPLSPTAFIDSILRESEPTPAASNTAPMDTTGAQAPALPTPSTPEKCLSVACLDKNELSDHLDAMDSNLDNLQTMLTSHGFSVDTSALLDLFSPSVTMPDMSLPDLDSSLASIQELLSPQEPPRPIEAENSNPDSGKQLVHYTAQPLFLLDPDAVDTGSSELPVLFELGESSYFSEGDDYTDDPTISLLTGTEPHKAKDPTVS

[24] = inhibitors of HIV Env-driven cell fusion, dose response, cherry-pick (AID 652057); type: functional, cell-based
[25] = target: Luciferin 4-monooxygenase (Photuris pensylvanica, UniProt Q27757); experiment: firefly luciferase enzyme inhibitors, dose response, counter-screen for HSF-1 reporter inhibitor project, biochemical, Cell Titer Glo, luminescence, cherry-picks (AID 588847)
Luciferin 4-monooxygenase, sequence (Q27757 whole entry): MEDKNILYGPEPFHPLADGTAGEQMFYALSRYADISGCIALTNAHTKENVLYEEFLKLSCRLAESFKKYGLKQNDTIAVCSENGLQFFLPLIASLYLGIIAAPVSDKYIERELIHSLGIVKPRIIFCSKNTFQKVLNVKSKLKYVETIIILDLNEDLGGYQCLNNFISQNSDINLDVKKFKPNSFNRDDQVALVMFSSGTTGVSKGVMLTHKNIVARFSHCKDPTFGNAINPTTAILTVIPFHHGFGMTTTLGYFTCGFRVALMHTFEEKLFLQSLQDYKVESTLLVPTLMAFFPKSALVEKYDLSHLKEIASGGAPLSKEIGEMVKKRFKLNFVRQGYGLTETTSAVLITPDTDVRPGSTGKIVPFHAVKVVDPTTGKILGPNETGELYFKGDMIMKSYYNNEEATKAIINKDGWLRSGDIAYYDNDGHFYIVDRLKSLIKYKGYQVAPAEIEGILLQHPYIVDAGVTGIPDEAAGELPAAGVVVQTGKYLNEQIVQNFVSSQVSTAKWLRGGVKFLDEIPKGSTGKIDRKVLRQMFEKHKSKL

[26] = test system: Streptococcus sp. 'group A'; experiment: growth inhibition of control SK(-) GAS strain, dose response, counter-screen for streptokinase expression inhibitor project, luminescence, kanamycin, BacTiterGlo, confirmation (AID 1900); type: functional, organism-based
Streptokinase A = target: T3, Streptokinase A (Streptococcus pyogenes serotype M1, UniProt P10520); experiment: S. pyogenes streptokinase expression inhibitors, potency, dose response, plasminogen activation absorbance, OD405 (AID 1914); type: functional, Streptococcus pyogenes M1 GAS;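 also: secreted streptokinase activity via plasminogen activation per viability signal from cell pellet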
T3 sequence (P10520 whole entry): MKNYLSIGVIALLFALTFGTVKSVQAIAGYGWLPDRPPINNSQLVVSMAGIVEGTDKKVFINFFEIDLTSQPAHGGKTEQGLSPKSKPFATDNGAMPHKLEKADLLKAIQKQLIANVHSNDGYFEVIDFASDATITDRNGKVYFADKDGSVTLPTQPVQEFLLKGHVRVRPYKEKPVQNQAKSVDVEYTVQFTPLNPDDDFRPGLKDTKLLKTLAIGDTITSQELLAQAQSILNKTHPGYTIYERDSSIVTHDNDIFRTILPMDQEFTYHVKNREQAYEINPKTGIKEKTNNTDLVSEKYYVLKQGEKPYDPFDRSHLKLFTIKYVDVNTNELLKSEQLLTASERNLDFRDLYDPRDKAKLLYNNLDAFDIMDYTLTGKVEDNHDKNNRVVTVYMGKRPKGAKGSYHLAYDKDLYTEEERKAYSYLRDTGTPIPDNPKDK

[27] = target: T4, Apoptotic protease-activating factor 1 (Homo sapiens, UniProt O14727); type: functional
T4 sequence (O14727 whole entry): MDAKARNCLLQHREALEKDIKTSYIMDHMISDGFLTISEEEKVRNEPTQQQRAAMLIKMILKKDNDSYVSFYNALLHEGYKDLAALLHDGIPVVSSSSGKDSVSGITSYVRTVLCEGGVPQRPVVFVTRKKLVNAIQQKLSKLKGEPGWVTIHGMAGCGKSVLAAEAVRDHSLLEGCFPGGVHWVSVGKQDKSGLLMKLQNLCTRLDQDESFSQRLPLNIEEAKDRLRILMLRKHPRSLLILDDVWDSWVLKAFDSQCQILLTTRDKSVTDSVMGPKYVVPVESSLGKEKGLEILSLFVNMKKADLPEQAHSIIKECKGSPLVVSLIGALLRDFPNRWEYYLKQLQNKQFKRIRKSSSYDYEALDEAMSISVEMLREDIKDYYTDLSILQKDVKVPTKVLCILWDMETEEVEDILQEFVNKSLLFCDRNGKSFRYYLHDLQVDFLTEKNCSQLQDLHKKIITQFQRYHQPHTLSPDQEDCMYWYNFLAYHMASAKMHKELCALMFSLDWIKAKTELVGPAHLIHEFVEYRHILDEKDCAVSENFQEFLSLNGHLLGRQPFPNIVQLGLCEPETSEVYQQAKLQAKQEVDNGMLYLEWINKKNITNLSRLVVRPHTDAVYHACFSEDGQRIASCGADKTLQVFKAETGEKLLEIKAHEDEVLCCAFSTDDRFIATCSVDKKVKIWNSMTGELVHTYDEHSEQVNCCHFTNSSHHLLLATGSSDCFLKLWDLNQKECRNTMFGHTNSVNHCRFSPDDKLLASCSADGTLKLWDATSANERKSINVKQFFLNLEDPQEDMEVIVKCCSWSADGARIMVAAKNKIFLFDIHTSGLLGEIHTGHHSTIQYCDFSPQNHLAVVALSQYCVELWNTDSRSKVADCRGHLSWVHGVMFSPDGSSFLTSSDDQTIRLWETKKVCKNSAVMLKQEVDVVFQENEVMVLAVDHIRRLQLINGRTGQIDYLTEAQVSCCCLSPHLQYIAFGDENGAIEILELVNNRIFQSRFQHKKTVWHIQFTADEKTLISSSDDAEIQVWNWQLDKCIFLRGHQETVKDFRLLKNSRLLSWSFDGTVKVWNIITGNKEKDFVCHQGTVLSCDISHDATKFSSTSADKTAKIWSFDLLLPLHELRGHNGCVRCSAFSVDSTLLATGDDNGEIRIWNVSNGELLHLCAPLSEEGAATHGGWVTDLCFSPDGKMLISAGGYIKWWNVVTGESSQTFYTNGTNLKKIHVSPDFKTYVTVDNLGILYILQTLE

[28] = target: Protein-tyrosine kinase 2-beta (Homo sapiens, UniProt Q14289);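 also: potency of inhibitors of PYK2 kinase phosphorylation of poly-GT substrate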
Protein-tyrosine kinase 2-beta, sequence (Q14289 whole entry): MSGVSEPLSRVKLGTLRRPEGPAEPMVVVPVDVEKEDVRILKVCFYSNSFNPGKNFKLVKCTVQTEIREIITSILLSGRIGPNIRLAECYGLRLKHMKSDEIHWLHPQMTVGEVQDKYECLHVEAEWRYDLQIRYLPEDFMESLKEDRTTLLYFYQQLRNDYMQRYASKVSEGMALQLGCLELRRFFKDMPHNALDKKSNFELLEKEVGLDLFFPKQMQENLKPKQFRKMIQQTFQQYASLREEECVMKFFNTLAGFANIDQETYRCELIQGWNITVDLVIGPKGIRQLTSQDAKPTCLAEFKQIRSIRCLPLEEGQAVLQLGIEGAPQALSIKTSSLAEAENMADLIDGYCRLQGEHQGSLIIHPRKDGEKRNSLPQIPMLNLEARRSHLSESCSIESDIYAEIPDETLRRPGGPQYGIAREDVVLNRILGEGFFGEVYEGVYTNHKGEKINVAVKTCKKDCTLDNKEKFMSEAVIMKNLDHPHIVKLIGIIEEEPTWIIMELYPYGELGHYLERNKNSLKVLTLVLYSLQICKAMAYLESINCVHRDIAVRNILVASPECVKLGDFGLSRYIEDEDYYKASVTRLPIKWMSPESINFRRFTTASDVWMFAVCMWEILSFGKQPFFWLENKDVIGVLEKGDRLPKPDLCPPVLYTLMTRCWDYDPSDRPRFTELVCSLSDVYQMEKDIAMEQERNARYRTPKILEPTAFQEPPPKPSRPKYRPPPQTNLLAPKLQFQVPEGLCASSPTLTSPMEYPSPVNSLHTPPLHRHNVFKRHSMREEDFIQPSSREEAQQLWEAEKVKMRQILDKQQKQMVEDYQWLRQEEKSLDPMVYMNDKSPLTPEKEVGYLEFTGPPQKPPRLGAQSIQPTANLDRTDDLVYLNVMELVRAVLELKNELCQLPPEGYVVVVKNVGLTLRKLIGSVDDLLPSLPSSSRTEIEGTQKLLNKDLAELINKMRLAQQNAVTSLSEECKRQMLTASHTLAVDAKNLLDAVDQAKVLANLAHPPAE

[29] = cytotoxicity toward NIH3T3 fibroblasts, dose response, counter-screen, cell-based, ATP luminescence, mouse fibroblasts (AID 2010); type: functional;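 also: cells exposed to compound for about 90 hours before reading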
[30] = target: Serine/threonine-protein phosphatase PP1-alpha catalytic subunit (Homo sapiens, UniProt P62136); experiment: PP1 phosphatase inhibitors, dose response, biochemical, fluorescence (AID 2394)
Serine/threonine-protein phosphatase PP1-alpha catalytic subunit, sequence (P62136 whole entry): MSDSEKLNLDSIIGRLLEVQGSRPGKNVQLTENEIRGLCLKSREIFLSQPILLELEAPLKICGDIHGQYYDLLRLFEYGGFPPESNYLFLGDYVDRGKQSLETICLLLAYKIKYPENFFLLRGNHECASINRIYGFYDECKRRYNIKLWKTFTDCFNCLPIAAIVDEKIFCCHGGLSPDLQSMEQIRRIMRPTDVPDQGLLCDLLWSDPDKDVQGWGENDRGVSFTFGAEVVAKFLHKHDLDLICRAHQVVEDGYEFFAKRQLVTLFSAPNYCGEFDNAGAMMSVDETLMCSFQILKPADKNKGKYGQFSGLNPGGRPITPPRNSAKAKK

[31] = target: Serine/threonine-protein phosphatase (Homo sapiens, UniProt Q9BPW0); experiment: PP5 phosphatase inhibitors, dose response, biochemical, fluorescence (AID 2395)
Serine/threonine-protein phosphatase, sequence (Q9BPW0 whole entry): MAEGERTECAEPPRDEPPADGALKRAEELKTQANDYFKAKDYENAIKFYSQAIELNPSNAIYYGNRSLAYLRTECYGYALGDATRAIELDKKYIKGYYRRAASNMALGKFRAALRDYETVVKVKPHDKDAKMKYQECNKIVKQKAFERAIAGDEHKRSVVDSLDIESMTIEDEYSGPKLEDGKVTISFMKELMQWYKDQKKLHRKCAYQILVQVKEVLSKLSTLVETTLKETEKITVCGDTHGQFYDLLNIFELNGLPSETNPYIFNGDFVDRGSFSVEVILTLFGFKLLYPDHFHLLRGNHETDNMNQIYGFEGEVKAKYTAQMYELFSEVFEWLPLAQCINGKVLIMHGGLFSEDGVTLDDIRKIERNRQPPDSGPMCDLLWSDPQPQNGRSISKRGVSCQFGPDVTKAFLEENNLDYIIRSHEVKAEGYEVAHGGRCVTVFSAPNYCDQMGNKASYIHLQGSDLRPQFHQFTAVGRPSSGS

[32] = inhibitors of intracellular T. cruzi replication, confirmation, NIH3T3 host cells, beta-gal luminescence (AID 2044); type: functional, cell-based;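 also: intracellular parasites grown in NIH/3T3 mouse fibroblasts as host cells; luminescent beta-galactosidase reporter signal from transgenic T. cruzi replicating inside host cells; inhibitors lower the luminescence signal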
Streptococcus = experiment: Group A Streptococcus viability loss, dose response, counter-screen for streptokinase expression inhibitor project, luminescence, BacTiterGlo (AID 1915); type: functional, organism-based;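 also: potency for reduction of bacterial viability or growth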
INS1 = experiment: beta cell apoptosis inhibitors, cytokine rescue, dose response, luminescence, retest (AID 449756); type: functional, cell-based; conditions: Rattus norvegicus;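 also: cell death triggered by IL-1 beta plus TNF-alpha plus IFN-gamma mixture; protective hits raise ATP signal compared with cytokine alone wells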
[33] = enhancers of respiration in Yfh1-depleted yeast, dose response, Friedreich's ataxia, plus single-dose screen (AID 1465); type: functional;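 also: yeast depleted of Yfh1p frataxin homolog grown on glycerol needing respiration; WST-1 tetrazolium dye reduction as measure of cellular dehydrogenase metabolic activity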
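For CC50 in this document: cells exposed to compound for 16 hours before readout.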

CCOC(=O)/C(=C\c1cccnc1)C(=O)c1cc(C(C)=O)c(Nc2ccccc2)s1
inconclusive: EC50 (BJ [2]) 7780 nM | EC50 (BJ [4]) 6680 nM | EC50 (BJ [9]) 2380 nM
active: EC50 [1] 2340 nM | EC50 [3] 8020 nM | EC50 [5] 8030 nM | AC50 [6] 2180 nM | IC50 [8] 3090 nM | EC50 (BJ [10]) 503 nM | CC50 (HeLa) 2910 nM
> 120000 nM (not active): EC50 [7]

O=C(CN1C(=O)c2ccccc2S1(=O)=O)c1ccc2c(c1)OCCCO2
inactive: IC50 [17] > 80000 nM | AC50 [25] > 52000 nM
active: AC50 [11] 631 nM | AC50 [12] 69.5 nM | AC50 [13] < 260 nM | EC50 [14] 15 nM | EC50 [3] < 100 nM | EC50 [5] < 100 nM | AC50 [15] 50300 nM | EC50 [7] < 100 nM | AC50 [16] < 260 nM | EC50 (cells) 21 nM | IC50 (Jurkat) < 160 nM | AC50 [18] 262 nM | EC50 [19] 16 nM | AC50 [20] < 68 nM | IC50 [21] 816 nM | AC50 [22] 725 nM | EC50 [23] < 160 nM | AC50 [24] < 260 nM

Cc1ccc(Cl)cc1NC1=C/C(=N\S(=O)(=O)c2cccs2)c2ccccc2C1=O
> 150000 nM (not active): EC50 (Streptokinase A)
38900 nM (not active): IC50 [30]
active: EC50 [26] 427 nM | IC50 [27] 1850 nM | EC50 [29] 3190 nM | IC50 [31] 2490 nM | EC50 [32] 1600 nM | EC50 (Streptococcus) 2980 nM | AC50 (INS1) 608 nM | EC50 [33] > 100000 nM
> 69500 nM (not active): IC50 [28]
